Test results published in article PMC7250851, “Discovery of a new sialic acid binding region that regulates Siglec-7” (Scientific Reports, 2020).
Entries after “also recorded” stand apart in the source; their conditions may differ.

Assays:
[1] = target: T1, GD3-Siglec-7EcFc interaction (Homo sapiens, UniProt Q9Y286); assay: Inhibition of GD3-Siglec-7EcFc binding (ELISA, double reciprocal plots); conditions: for Inhibition type: double reciprocal plots
T1 construct: the extracellular domain of Siglec-7 fused with the human IgG1 Fc region; made in house
T1 sequence (Q9Y286 19-353 limits assumed): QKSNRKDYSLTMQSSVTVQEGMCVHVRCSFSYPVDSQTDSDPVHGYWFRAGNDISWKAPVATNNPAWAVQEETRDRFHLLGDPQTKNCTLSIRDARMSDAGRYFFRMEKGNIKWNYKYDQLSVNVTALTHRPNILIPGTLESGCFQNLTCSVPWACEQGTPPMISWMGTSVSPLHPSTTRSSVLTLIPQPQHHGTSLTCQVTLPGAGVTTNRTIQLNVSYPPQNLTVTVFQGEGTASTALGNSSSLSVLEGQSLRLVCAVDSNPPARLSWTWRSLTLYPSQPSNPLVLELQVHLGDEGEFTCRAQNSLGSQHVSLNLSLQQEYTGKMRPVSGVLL
Method: (§1) For ganglioside binding assay, 96-well plates (Nunc, Roskilde, Denmark) were coated with 50 μL/well of 0–6.0 µM ganglioside in ethanol and left to air dry overnight or at 37 °C for 2 h. The wells were washed three times with TBS and blocked with 1% BSA (w/v) in TBS. Siglec-7-Fc fusion protein (64 pmol/mL) was pre-complexed with a 1/1000 dilution of horseradish peroxidase-conjugated goat anti-human IgG + M + A (American Qualex) for 30 min at room temperature, and 50 μL of reaction mixture was added to each well. After 2 h incubation at room temperature, the wells were washed extensively, then 100 µL of 0.05% o-phenylenediamine in 0.1 M Tris-HCl (pH 6.8) containing 0.006% H2O2 was added and incubated at room temperature. The absorbance was then measured at 490 nm (Bio-Rad, Hercules, CA) after the addition of 100 µL of 2 N sulphuric acid. For measurement of the inhibition toward GD3-Siglec-7 interaction, inhibitors (0–200 μM for octyl-α2,8-mono/di/tri/teraSia, 0–50 μM for tetradecyl-ganglioside glycan), Siglec-7, and peroxidase conjugated anti-human IgG + IgM + IgA were pre-incubated at 25 °C for 30 min, and the reaction mixture with or without inhibitor was used as described above. All experiments were performed three times.

[2] = tested on: T2, Siglec-7EcFc (WT); assay: ELISA binding of Siglec-7EcFc to immobilised gangliosides / (Neu5Ac)n-PE; design: species or system human; conditions: ligand coated on plastic wells
T2 construct: the extracellular domain of Siglec-7 fused with the human IgG1 Fc region; made in house
Method: as §1

[3] = tested on: T3, Siglec-7V R124A; assay: STD-NMR and 1H-NMR titration; type: binding, human; conditions: protein:ligand 1:20, 10 °C, pH 7.9
T3 construct: DNA fragments encoding human Siglec-7 V-set domain (residues 18–144) and the mutants were sub-cloned into the pCold-PDI vector; (His)6-PDI (cleaved yes); made in house; host or cells: Escherichia coli Origami B (DE3)
Method: (§2) Recombinant human Siglec-7 V-set domain and its mutants (R67A, R124A, R67K) were prepared using the pCold-PDI vector as previously described with modifications. DNA fragments encoding human Siglec-7 V-set domain (residues 18–144) and the mutants were sub-cloned into the pCold-PDI vector. The plasmids were transformed into Escherichia coli Origami B (DE3) (Novagen), and the cells were grown at 37 °C in LB medium. After induction with isopropyl β-D-thiogalactoside (0.5 mM), the cells were cultured at 15 °C for further 16 h. Then the cells were harvested and sonicated in 20 mM Tris-HCl (pH 8.0), and containing 0.1 M NaCl and 0.1 mM EDTA. After centrifugation, the supernatant containing (His)6-PDI-fused protein was collected and applied to a Ni sepharose column (GE healthcare) equilibrated with 20 mM Tris-HCl (pH 8.0), and containing 0.1 M NaCl. After washing with 20 mM Tris-HCl (pH 8.0) containing 0.1 M NaCl and 20 mM imidazole, the protein was eluted with 20 mM Tris-HCl (pH 8.0) containing 0.1 M NaCl and 500 mM imidazole. The (His)6-PDI-fused protein was extensively dialysed against 50 mM Tris-HCl (pH 8.0) containing 0.1 M NaCl, 5 mM reduced glutathione, 0.5 mM oxidised glutathione, and 10% glycerol. The protein was then digested with TEV protease to remove the (His)6-PDI tag. The digested proteins were passed through the Ni sepharose column and the final purification was performed with a Hiroad Superdex 75 pg size exclusion column (GE healthcare) equilibrated with 20 mM Tris-HCl (pH 8.0) containing 0.1 M NaCl.
(§3) NMR spectra were collected using the DRX-600 (600 MHz) spectrometer (Bruker; Billerica, MA, US) equipped with a TXI-probe. The probe temperature was set at 283 K. Siglec-7 V-set domains (WT, R124A, R67A) were prepared with 10 mM phosphate buffer including 150 mM NaCl in D2O (D: 99%). The final protein concentration before addition of the ligand was 55 μM (pH 7.9). The 5.5 mM diSia and triSia solutions (pH 7.9) in PBS were gradually added into the protein solution to achieve the protein:ligand molar ratios of 1:0, 1:1, 1:2, 1:5, 1:10, and 1:20; the ^1H-NMR spectra were obtained with the WATERGATE pulse sequence in each protein:ligand ratio. Data were collected for 1024 scans by suppressing the residual HDO signal to 3-9-19 pulse train. Saturation Transfer Difference (STD) NMR experiments were performed at the protein:ligand ratio of 1:20. The protein signal was saturated on resonance at 0.15 ppm and off resonance at 40 ppm with a cascade of 60 selective Gaussian shaped pulses of 50 ms duration and 3 s saturation in total. The WATERGATE pulse sequence was used to suppress the residual HDO signal, and a spin-lock filter with a strength of 8 kHz and a duration of 10 ms was applied to suppress protein background signal. All STD NMR experiments were collected for 1024 scans with an inter pulse delay of 100 μs. The Sias signal assignments have been previously described by Jennings et al.[34].

[4] = tested on: T4, Siglec-7V R67A; assay: STD-NMR and 1H-NMR titration; type: binding, human; conditions: protein:ligand 1:20, 10 °C, pH 7.9
T4 construct: DNA fragments encoding human Siglec-7 V-set domain (residues 18–144) and the mutants were sub-cloned into the pCold-PDI vector; (His)6-PDI (cleaved yes); made in house; host or cells: Escherichia coli Origami B (DE3)
Method: as §2, §3

[5] = tested on: T5, Siglec-7V WT; assay: STD-NMR and 1H-NMR titration; type: binding, human; conditions: protein:ligand 1:20, 10 °C, pH 7.9
T5 construct: DNA fragments encoding human Siglec-7 V-set domain (residues 18–144) and the mutants were sub-cloned into the pCold-PDI vector; (His)6-PDI (cleaved yes); made in house; host or cells: Escherichia coli Origami B (DE3)
Method: as §2, §3

[6] = tested on: T6, Siglec-7EcFc (R67A); assay: ELISA binding of Siglec-7EcFc to immobilised gangliosides / (Neu5Ac)n-PE; design: species or system human; conditions: ligand coated on plastic wells, compared with WT
T6 construct: the extracellular domain of Siglec-7 fused with the human IgG1 Fc region; made in house
Method: as §1

[7] = tested on: T7, Siglec-7EcFc (R67K); assay: as above; design: species or system human; conditions: ligand coated on plastic wells, compared with WT
T7 construct: the extracellular domain of Siglec-7 fused with the human IgG1 Fc region; made in house
Method: as §1

[8] = tested on: T8, Siglec-7EcFc (R92A); assay: as above; design: species or system human; conditions: ligand coated on plastic wells, compared with WT
T8 construct: the extracellular domain of Siglec-7 fused with the human IgG1 Fc region; made in house
Method: as §1

[9] = tested on: T9, Siglec-7EcFc (R92K); assay: as above; design: species or system human; conditions: ligand coated on plastic wells, compared with WT
T9 construct: the extracellular domain of Siglec-7 fused with the human IgG1 Fc region; made in house
Method: as §1

Molecule | Inhibition type [1] | binding activity (ELISA) [2] | binding in solution (STD-NMR) [3] | binding in solution (STD-NMR) [4] | binding in solution (STD-NMR) [5] | further results
CCCCCCCCOC1(C(=O)O)CC(O)C(NC(C)=O)C(C(O)C(CO)OC2(C(=O)O)CC(O)C(NC(C)=O)C(C(O)C(CO)OC3(C(=O)O)CC(O)C(NC(C)=O)C(C(O)C(O)CO)O3)O2)O1 (stereo not drawn) [α2,8-triSia] | non-competitive inhibition | – | – | – | – | IC50 ([1]; octyl glycosides, 0–200 μM, GD3-coated plate): < 100 µM
CCCCCCCCOC1(C(=O)O)CC(O)C(NC(C)=O)C(C(O)C(CO)OC2(C(=O)O)CC(O)C(NC(C)=O)C(C(O)C(O)CO)O2)O1 (stereo not drawn) [α2,8-diSia] | competitive inhibition | – | – | – | – | inhibition activity toward Siglec-7EcFc-GD3 interaction ([1]; octyl glycosides, 0–200 μM): the effect was weak
CC(=O)NC1C(O)CC(OC(CO)C(O)C2OC(OC(CO)C(O)C3OC(O)(C(=O)O)CC(O)C3NC(C)=O)(C(=O)O)CC(O)C2NC(C)=O)(C(=O)O)OC1C(O)C(O)CO (stereo not shown) [triSia, Neu5Acα(2-8)Neu5Acα(2-8)Neu5Ac-OH] | – | – | very little or no interactions | involved in binding | involved in binding | –
CC(=O)NC1C(O)CC(OC(CO)C(O)C2OC(O)(C(=O)O)CC(O)C2NC(C)=O)(C(=O)O)OC1C(O)C(O)CO (stereo not shown) [diSia, Neu5Acα(2-8)Neu5Ac-OH] | – | – | very little or no interactions | obviously recognised | obviously recognised | –

Second part, led by results:

Inhibition type [1] | binding activity (ELISA) [2] | binding in solution (STD-NMR) [3] | binding in solution (STD-NMR) [4] | binding in solution (STD-NMR) [5] | Molecule | further results
– | Almost no binding activity | – | – | – | Neu5Aα2 → 3Galβ1 → 4Glc-Cer [GM3] | –
– | higher binding activity | – | – | – | Neu5Acα2 → 8Neu5Aα2 → 3Galβ1 → 4Glc-Cer [GD3] | binding activity (ELISA) [6]: significantly lower binding activity; also recorded: did not effectively bind; binding activity (ELISA) [7]: significantly lower binding activity; binding activity (ELISA) [8]: almost the same binding activity; binding activity (ELISA) [9]: almost the same binding activity
